Laboratory results reported in patent publication US6096744A, “Sulfonamide derivatives of substituted quinoxaline 2,3-diones as glutamate receptor antagonists” (Warner-Lambert Company, priority 1998, dated 2000).

Tests used:
[1] = biological target: kainate site (non-NMDA receptor); assay: kainate site (non-NMDA receptor) binding affinity (London and Coyle)
AMPA receptors = assay: AMPA receptor binding affinity (Honore et al.)
[2] = biological target: T1, glycine site of the NMDA receptor (Rattus norvegicus, UniProt P35439); assay: binding affinity for the glycine site of the NMDA receptor (Jones et al.)
T1 construct: from tissue

IC50 KA [1]	IC50 (AMPA receptors)	IC50 [2]	Compound
290 nM	210 nM	100 nM	Cc1c([N+](=O)[O-])cc2[nH]c(=O)c(=O)[nH]c2c1CN(C)S(C)(=O)=O [Compound 1, N-Methyl-N-(6-methyl-7-nitro-2,3-dioxo-1,2,3,4-tetrahydro-quinoxalin-5-ylmethyl)-methanesulfonamide]
2630 nM	560 nM	> 1000 nM	Cc1ccc(S(=O)(=O)N(C)Cc2c(C)c([N+](=O)[O-])cc3[nH]c(=O)c(=O)[nH]c23)cc1 [Compound 2, 4,N-Dimethyl-N-(6-methyl-7-nitro-2,3-dioxo-1,2,3,4-tetrahydro-quinoxalin-5-ylmethyl)-benzenesulfonamide]
4770 nM	2600 nM	> 1000 nM	Cc1c([N+](=O)[O-])cc2[nH]c(=O)c(=O)[nH]c2c1CN(C)S(=O)(=O)c1c(C(C)C)cc(C(C)C)cc1C(C)C [Compound 3, 2,4,6-Triisopropyl-N-methyl-N-(6-methyl-7-nitro-2,3-dioxo-1,2,3,4-tetrahydro-quinoxalin-5-ylmethyl)-benzenesulfonamide]
26000 nM	18000 nM	> 1000 nM	Cc1c([N+](=O)[O-])cc2[nH]c(=O)c(=O)[nH]c2c1CN(C)S(=O)(=O)c1ccc2ccccc2c1 [Compound 4, Naphthalene-2-sulfonic acid methyl-(6-methyl-7-nitro-2,3-dioxo-1,2,3,4-tetrahydro-quinoxalin-5-ylmethyl)-amide]
